Experimental data taken from ChEMBL document CHEMBL5154916, “Multiparameter Optimization of Naphthyridine Derivatives as Selective α5-GABAA Receptor Negative Allosteric Modulators” (J Med Chem, 2022).
pIC50, pKi: −log10 of the molar value.

Columns and labels:
[1] = Metabolic stability in human liver microsomes assessed as intrinsic clearance at 2.5 uM; type: ADME, Microsome; details: read-out: CLH
[2] = Metabolic stability in Wistar rat liver microsomes assessed as intrinsic clearance at 2.5 uM; type: ADME, Microsome; details: read-out: CLH
[3] = molecular target: GABA-A receptor; alpha-1/beta-3/gamma-2 (Homo sapiens) (UniProt P14867+P18507+P28472); assay: Negative allosteric modulation activity at human recombinant alpha1beta3gamma2 GABAA receptor stably expressed in HEK293 cells assessed as modulation at alpha1 subunit at 10 uM by Patch clamp method; type: cell-based; details: filed as negative allosteric modulator
[4] = molecular target: T1, GABA-A receptor; alpha-5/beta-3/gamma-2 (Homo sapiens) (UniProt P18507+P28472+P31644); assay: Negative allosteric modulation activity at human recombinant alpha5beta3gamma2 GABAA receptor stably expressed in HEK293 cells assessed as modulation at alpha5 subunit at 10 uM by Patch clamp method; type: cell-based
[5] = molecular target: Voltage-gated inwardly rectifying potassium channel KCNH2 (Homo sapiens, UniProt Q12809); assay: Inhibition of hERG expressed in CHO cells stably at -80 mV holding potential by automated patch clamp method; type: toxicity, cell-based
[6] = molecular target: T1, GABA-A receptor; alpha-5/beta-3/gamma-2 (Homo sapiens); assay: Negative allosteric modulation activity at human recombinant alpha5beta3gamma2 GABAA receptor stably expressed in HEK293 cells assessed as modulation at alpha5 subunit at 1 uM by Patch clamp method; type: cell-based; details: filed as negative allosteric modulator
[7] = Apparent permeability in human Caco-2 cells at 10 uM by HPLC-UV analysis; type: ADME, cell-based
[8] = Passive permeability in human Caco-2 cells assessed as permeability damage ratio at 10 uM by HPLC-UV analysis; type: ADME, cell-based; details: caco-2, 10 µM
[9] = molecular target: T2, GABA-A receptor; alpha-5/beta-3/gamma-2 (Homo sapiens, UniProt P18507+P28472+P31644); assay: Displacement of [3H]Ro151788 from human recombinant alpha5beta3gamma2 GABAA receptor stably expressed in HEK293 cell membrane assessed as inhibition constant by radioligand binding assay; type: cell membranes
T2 sequence (P18507 whole entry): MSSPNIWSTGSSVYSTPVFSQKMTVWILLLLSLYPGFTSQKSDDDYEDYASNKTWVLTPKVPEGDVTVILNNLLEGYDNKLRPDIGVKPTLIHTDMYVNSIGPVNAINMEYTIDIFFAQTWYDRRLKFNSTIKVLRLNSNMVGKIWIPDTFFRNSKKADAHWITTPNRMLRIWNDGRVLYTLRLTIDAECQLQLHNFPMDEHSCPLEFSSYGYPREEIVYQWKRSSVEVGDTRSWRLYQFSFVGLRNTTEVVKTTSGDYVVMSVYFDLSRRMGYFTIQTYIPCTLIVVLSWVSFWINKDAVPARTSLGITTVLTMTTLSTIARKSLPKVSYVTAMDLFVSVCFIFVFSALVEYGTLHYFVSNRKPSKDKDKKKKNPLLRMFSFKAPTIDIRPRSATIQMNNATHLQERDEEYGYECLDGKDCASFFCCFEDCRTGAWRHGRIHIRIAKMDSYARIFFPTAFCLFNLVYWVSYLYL
T2 sequence (P28472 whole entry): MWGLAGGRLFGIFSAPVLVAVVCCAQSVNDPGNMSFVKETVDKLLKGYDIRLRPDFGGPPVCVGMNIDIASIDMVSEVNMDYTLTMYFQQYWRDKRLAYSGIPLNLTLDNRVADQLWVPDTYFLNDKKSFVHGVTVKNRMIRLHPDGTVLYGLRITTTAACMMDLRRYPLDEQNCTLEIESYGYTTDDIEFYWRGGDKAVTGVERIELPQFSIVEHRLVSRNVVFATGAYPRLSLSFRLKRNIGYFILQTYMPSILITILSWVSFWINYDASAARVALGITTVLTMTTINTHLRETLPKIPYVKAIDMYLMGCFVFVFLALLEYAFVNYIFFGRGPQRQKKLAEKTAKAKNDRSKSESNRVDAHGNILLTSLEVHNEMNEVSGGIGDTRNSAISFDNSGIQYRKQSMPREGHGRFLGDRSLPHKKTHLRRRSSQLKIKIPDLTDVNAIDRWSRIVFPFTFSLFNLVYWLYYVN
T2 sequence (P31644 whole entry): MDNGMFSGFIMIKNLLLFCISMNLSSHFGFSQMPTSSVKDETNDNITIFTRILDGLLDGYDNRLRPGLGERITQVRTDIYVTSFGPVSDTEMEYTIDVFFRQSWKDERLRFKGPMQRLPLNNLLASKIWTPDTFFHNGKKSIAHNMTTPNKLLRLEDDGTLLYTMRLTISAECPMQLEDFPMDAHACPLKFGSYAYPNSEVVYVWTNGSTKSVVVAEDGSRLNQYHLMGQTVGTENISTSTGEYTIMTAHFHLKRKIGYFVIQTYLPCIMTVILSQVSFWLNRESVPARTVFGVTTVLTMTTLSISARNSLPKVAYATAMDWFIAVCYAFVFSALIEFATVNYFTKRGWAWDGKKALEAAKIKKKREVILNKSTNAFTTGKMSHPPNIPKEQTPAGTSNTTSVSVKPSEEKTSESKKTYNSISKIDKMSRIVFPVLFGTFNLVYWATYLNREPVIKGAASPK

[10] = Ratio of drug level in brain to plasma in Wistar rat at 3 mg/kg, po measured at 1.5 hr post dose; type: ADME, organism-based; details: brain and plasma, read-out: BPR
[11] = Tmax in Wistar rat total plasma at 1 mg/kg, po by HPLC-MS/MS analysis; type: ADME, organism-based
[12] = Cmax in Wistar rat total plasma at 1 mg/kg, po by HPLC-MS/MS analysis; type: ADME, organism-based; parameters: dose 1 mg/kg, route po
[13] = Ratio of drug level in brain to plasma in Wistar rat at 1 mg/kg, iv by HPLC-MS/MS analysis; type: ADME, organism-based; details: brain and plasma, read-out: BPR
[14] = AUC (0 to infinity) in Wistar rat total plasma at 1 mg/kg, po by HPLC-MS/MS analysis; type: ADME, organism-based; parameters: time infinity, dose 1 mg/kg, route po
[15] = Clearance in Wistar rat plasma at 1 mg/kg, iv by HPLC-MS/MS analysis; type: ADME, organism-based
[16] = Volume of distribution in Wistar rat plasma at 1 mg/kg, iv by HPLC-MS/MS analysis; type: ADME, organism-based
[17] = Half life in Wistar rat total plasma at 1 mg/kg, po by HPLC-MS/MS analysis; type: ADME, organism-based
[18] = AUC (0 to infinity) in Wistar rat total plasma at 1 mg/kg, iv by HPLC-MS/MS analysis; type: ADME, organism-based; parameters: time infinity, dose 1 mg/kg, route iv
[19] = Half life in Wistar rat total plasma at 1 mg/kg, iv by HPLC-MS/MS analysis; type: ADME, organism-based
[20] = Bioavailability in Wistar rat total plasma at 1 mg/kg, iv by HPLC-MS/MS analysis; type: ADME, organism-based
[21] = filed as negative allosteric modulator

Chain of Voltage-gated inwardly rectifying potassium channel KCNH2 (Q12809 whole entry): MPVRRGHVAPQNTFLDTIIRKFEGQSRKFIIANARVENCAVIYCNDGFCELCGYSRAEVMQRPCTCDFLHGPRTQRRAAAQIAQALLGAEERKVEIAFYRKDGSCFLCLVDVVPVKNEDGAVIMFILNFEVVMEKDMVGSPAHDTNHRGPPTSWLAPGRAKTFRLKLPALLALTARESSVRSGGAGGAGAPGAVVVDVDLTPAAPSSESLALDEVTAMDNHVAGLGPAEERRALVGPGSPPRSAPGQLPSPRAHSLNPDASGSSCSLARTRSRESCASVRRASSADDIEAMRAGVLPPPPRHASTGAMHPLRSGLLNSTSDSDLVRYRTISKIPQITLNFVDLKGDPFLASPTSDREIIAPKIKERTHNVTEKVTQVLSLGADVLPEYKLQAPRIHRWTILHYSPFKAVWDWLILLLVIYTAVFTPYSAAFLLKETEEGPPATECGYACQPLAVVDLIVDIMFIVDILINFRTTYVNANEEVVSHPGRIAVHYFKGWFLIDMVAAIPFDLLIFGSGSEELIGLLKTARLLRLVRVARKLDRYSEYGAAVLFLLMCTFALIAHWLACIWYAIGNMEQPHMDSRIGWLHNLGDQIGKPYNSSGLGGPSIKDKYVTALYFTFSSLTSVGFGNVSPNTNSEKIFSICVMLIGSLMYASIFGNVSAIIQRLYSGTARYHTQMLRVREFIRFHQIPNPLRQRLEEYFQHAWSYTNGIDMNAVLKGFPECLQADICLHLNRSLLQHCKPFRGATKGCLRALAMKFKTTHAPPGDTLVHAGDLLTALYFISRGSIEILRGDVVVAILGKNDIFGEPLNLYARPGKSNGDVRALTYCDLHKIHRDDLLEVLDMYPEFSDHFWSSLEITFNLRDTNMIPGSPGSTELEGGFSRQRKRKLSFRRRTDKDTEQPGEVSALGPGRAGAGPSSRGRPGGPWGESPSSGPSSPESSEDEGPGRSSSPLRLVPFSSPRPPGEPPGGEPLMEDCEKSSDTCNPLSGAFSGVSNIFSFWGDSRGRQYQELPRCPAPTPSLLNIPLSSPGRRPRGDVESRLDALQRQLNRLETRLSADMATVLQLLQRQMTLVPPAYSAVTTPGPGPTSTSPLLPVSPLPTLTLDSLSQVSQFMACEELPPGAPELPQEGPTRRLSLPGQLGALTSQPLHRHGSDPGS

Row | Structure (SMILES) | microsomal CLint at 2.5 µM [1] [µL/min/mg] | microsomal CLint at 2.5 µM [2] [µL/min/mg] | Activity [3] [%] | Activity [4, 21] [%] | Activity [6] [%] | Papp at 10 µM [7] [nm/s] | pKi [9] | Kp at 1.5 h [10] | pIC50 [5] | Ratio [8] | also measured
1 | Cc1onc(-c2ccc(F)cc2)c1COc1ccc2c(n1)CCN(CCS(C)(=O)=O)C2=O | 7 | 89 | -12 | -46 | -33 | 493 | 8.11 | – | 5.96 | 1.1 | –
2 | Cc1nnn(-c2ccc(F)cc2)c1COc1ccc2c(n1)CCN(C(=O)C1CCCO1)C2 (stereo not drawn) | 15 | 46 | -8 | -43 | -30 | 471 | 7.41 | 0.31 | < 4.52 | 0.92 | –
3 | Cc1nnn(-c2ccc(F)cc2)c1COc1ccc2c(n1)CCN(C(=O)C1CCOC1)C2 (stereo not drawn) | 13 | 29 | -7 | -39 | -34 | 446 | 7.38 | 0.21 | 4.52 | 1.1 | –
4 | Cc1nnn(-c2ccc(F)cc2)c1COc1ccc2c(n1)CCN(C(=O)NC1CC(=O)N(C)C1)C2 (stereo not drawn) | 4 | 11 | -3 | -35 | -31 | 3.3 | 7.42 | – | < 4.52 | 134 | –

More lines, in order of rising pKi [9], values ahead:

Row | microsomal CLint at 2.5 µM [1] [µL/min/mg] | microsomal CLint at 2.5 µM [2] [µL/min/mg] | Activity [3] [%] | Activity [4, 21] [%] | Activity [6] [%] | Papp at 10 µM [7] [nm/s] | pKi [9] | Kp at 1.5 h [10] | Structure (SMILES) | pIC50 [5] | Ratio [8] | also measured
5 | 1 | 9 | -16 | – | -41 | 220 | 7.26 | 0.02 | Cc1nnn(-c2ccc(F)cc2)c1COc1ccc2c(n1)CCN(CCS(C)(=O)=O)C2=O | 4.52 | 3.2 | Activity [4]: -51%
6 | 18 | 26 | 0 | -36 | -25 | 528 | 7.55 | 0.45 | CC(=O)N1CCc2nc(OCc3c(C)nnn3-c3ccc(F)cc3)ccc2C1 | < 4.52 | 0.74 | Tmax [11]: 30 min; Cmax [12]: 0.0214 µg/mL; Kp [13]: 0.46; AUC(0-inf) [14]: 0.0204 µg·h/mL; clearance [15]: 4.67 L/h/kg; Vd [16]: 1.36 L/kg; half-life [17]: 42.6 min; AUC(0-inf) [18]: 0.218 µg·h/mL; half-life [19]: 12 min; bioavailability [20]: 9.4%
7 | 9 | 25 | -7 | -30 | -19 | 545 | 8.49 | 0.38 | CC(=O)N1Cc2ccc(OCc3c(C)nnn3-c3ccc(F)cc3)nc2C1 | 4.52 | 0.9 | Tmax [11]: 30 min; Cmax [12]: 0.0476 µg/mL; Kp [13]: 0.38; AUC(0-inf) [14]: 0.0437 µg·h/mL; clearance [15]: 3.33 L/h/kg; Vd [16]: 1.09 L/kg; half-life [17]: 51.6 min; AUC(0-inf) [18]: 0.301 µg·h/mL; half-life [19]: 13.8 min; bioavailability [20]: 14.5%
